Read-outs that look alike come from different tables or passages of the source.

The nature of data set [1]: IAM-HPLC chromatographic capacity factor (log k' IAM). As to conditions: IAM.PC.MG 12 µm column; isocratic ACN/0.035 M phosphate buffer pH 6.8 (30:70 v/v), 0.5 ml/min; k'=(Tr–T0)/T0; mean of 2–4 determinations. The data set is classed as physicochemical. The protocol: Chromatographic analysis was performed using a Shimadzu LC 20A chromatograph coupled to a diode array detector, operated at a range of 210–260 nm, depending on the analyzed compound. A biomimetic commercially available column was used in all experiments: IAM. PC.MG12 µm (150 × 4.6 mm) was purchased from Regis Chemical Company (Morton Grove, IL).
OSC separation conditions under IAM-HPLC were adapted from [Luco et al. (2003]) and [Barbato et al. (1998]), with modifications. The chromatographic mode consisted in an isocratic elution used as the mobile phase ACN/0.035 M phosphate buffer −pH 6.8− (30:70 (v/v)) at 0.5 ml min^−1. The column dead time (T0) was estimated by ascorbic acid retention time which was measured at 210 nm. The obtained retention data were used to calculate the chromatographic parameter corresponding to the capacity factor k’ as follows: k’ = (Tr–T0)/T0. All capacity factors given represent the mean of 2–4 determinations of each sample solution.
For this study, we considered 28 phytochemical compounds containing sulfur-based groups. […] Most of these compounds are garlic-derived substances with bioactive functions. […] We chose them because of their bioactive functionality and their similar metabolism within the plants and human body. Each analytical standard stock solution was prepared in the mobile phase at concentrations ranging from 100 to 800 µg ml^−1, depending on the solubility of the compound and their DAD detector response. Peak identification in samples was carried out by comparing retention times with reference standards.

Details of data set [2]: method as in Egen-Schwind et al., 1992. As to conditions: ref Egen-Schwind et al., 1992, cited from earlier work; for lipophilicity (relative, in words): 1,3- vs 1,2-vinyldithiin; for elimination / tissue accumulation: serum, kidney, fat tissue.
The conditions of data set [3]: cited from earlier work.
Details of data set [4]: method as in Torres-Palazzolo et al. (2018). To be noted: ref Torres-Palazzolo et al. (2018); cited from earlier work.

Regarding `CCCSSCCC` [Propyl disulfide], in data set [1], the “Log (k'IAM)” value came out at 0.913.

For the molecule `S=C=NCCc1ccccc1` [Phenethyl isothiocyanate], the “Log (k'IAM)” value in data set [1] was determined as 0.663.

For the molecule `C=CC1CC=CSS1` (stereo not drawn) [1,2-vinyldithiin], in data set [2], the “lipophilicity (relative, in words)” value is “more lipophilic” and the “elimination / tissue accumulation” value is “showed a tendency to accumulate in fat tissues”.

With S-methyl-L-cysteine, the “Log (k'IAM)” value in data set [1] is −1.322.

In the case of `S=C=Nc1ccccc1` [Phenyl isothiocyanate], the “Log (k'IAM)” value in data set [1] was determined as 0.746.

For the molecule `CCSCC` [Ethyl sulfide], the “Log (k'IAM)” value in data set [1] was −0.099.

Consider `C=CCSS/C=C/C[S+]([O-])CC=C` (stereo not drawn) [E-Ajoene], for which the “Log (k'IAM)” value in data set [1] came to 0.022.

In the case of S-propyl-L-cysteine, in data set [1], the “Log (k'IAM)” value is on record as −1.645.

S-allyl-L-cysteine: the “Log (k'IAM)” value in data set [1] is −1.102. The “cellular permeability (in words)” value in data set [3] (ref Rahman, 2007) is given as “high cellular permeability”.

As to `CSSC` [Dimethyl disulfide, dimethyl disulfide], in data set [1], the “Log (k'IAM)” value is reported as −0.017.

For the molecule `C[S+]([O-])C[C@H](N)C(=O)O` (single isomer, unassigned; (+)) [Methiin, (+)-S-methyl-L-cysteine sulfoxide], in data set [1], the “Log (k'IAM)” value is on record as −1.922.

On to `C=CCSS/C=C\C[S+]([O-])CC=C` (stereo not drawn) [Z-Ajoene], for which, in data set [1], the “Log (k'IAM)” value came out at 0.015.

As to `CCSSCC` [Ethyl disulfide], in data set [1], the “Log (k'IAM)” value worked out at 0.420.

Consider `OCc1c[nH]c2ccccc12` [Indole-3-carbinol, indole-3-carbinol], for which the “Log (k'IAM)” value in data set [1] is on record as −0.204.

`C=CCSSSCC=C` [Diallyl Trisulfide, diallyl trisulfide]: the “Log (k'IAM)” value in data set [1] amounted to 0.781. The “cellular permeability (in words)” value in data set [3] (not told) is on record as “high cellular permeability”.

Regarding `C=CCN=C=S` [Allyl isothiocyanate], in data set [1], the “Log (k'IAM)” value is given as 0.118.

As to `C=CCSC` [Allyl methyl sulfide, allyl methyl sulfide], in data set [1], the “Log (k'IAM)” value is −1.021.

`C=CC1SC=CCS1` (stereo not drawn) [2-vinyldithiin, 2-Vinyl-4H-1,3-dithiine]: the “Log (k'IAM)” value in data set [1] is 0.237. Further, the “permeation through the intestine” value in data set [4] is reported as “less than 5%”. Moreover, in data set [2], the “lipophilicity (relative, in words)” value is recorded as “less lipophilic”; the “elimination / tissue accumulation” value is “rapidly eliminated from serum, the kidney, and fat tissue”.

For the molecule `C=CCS` [Allyl mercaptan], the “Log (k'IAM)” value in data set [1] was −0.197.

Turning to `CCCSSSC` [Methyl Propyl Trisulfide], in data set [1], the “Log (k'IAM)” value was 0.810.

With `C=CCS[S+]([O-])CC=C` (stereo not drawn) [Allicin, diallyl thiosulfinate], the “Log (k'IAM)” value in data set [1] was −0.409. Further, the “permeation through the intestine” value in data set [4] is “less than 5%”. Also, in data set [3] (ref Rahman, 2007), the “cellular permeability (in words)” value is given as “can easily permeate cell membranes of phospholipids bilayers”; the “metabolism (in words)” value was “rapidly metabolized and transformed into other active compounds”.

`C=CCSCC=C` [Diallyl sulfide, diallyl sulfide]: the “Log (k'IAM)” value in data set [1] stood at 0.222. The “permeation through the intestine” value in data set [4] was “less than 5%”.

`C[S+]([O-])CCCCN=C=S` (stereo not drawn) [Sulforaphane, sulforaphane]: the “Log (k'IAM)” value in data set [1] is listed as −0.514.

With `S=C=NCc1ccccc1` [Benzyl isothiocyanate], in data set [1], the “Log (k'IAM)” value came out at 0.571.

Take `CC=C[S+]([O-])C[C@H](N)C(=O)O` (stereo in doubt) [Isoalliin, (+)-S-trans-1-propenyl-L-cysteine sulfoxide]: the “Log (k'IAM)” value in data set [1] was −0.734.

As to `C[S+]([O-])/C=C/CCN=C=S` (stereo not drawn) [Sulforaphene, S-sulforaphene], the “Log (k'IAM)” value in data set [1] is on record as −0.521.

Turning to `c1coc(CSSCc2ccco2)c1` [Furfuryl disulfide, furfuryl disulfide], in data set [1], the “Log (k'IAM)” value is 0.713.

As for `C=CCSSCC=C` [Diallyl disulfide, diallyl disulfide], the “Log (k'IAM)” value in data set [1] turned out to be 0.554. Also, the “cellular permeability (in words)” value in data set [3] (ref Rahman, 2007) is listed as “high cellular permeability”.

The values above are taken from PMC8488277, “Permeability Data of Organosulfur Garlic Compounds Estimated by Immobilized Artificial Membrane Chromatography: Correlation Across Several Biological Barriers” (Frontiers in Chemistry, 2021).
